These results are taken from US20100041697A1, “PNEUMONIA TREATMENT” (TaiGen Biotechnology Co., Ltd., priority 2008, published 2010).

As usually defined, the fraction unbound is free concentration divided by total concentration. High values mean weak binding, low ones extensive binding. What is called Cmax is the maximum level reached in the sampled fluid or tissue. As a reminder, the AUC(0-t) is the area under the concentration-time curve up to a stated or last time point. Lower therefore signals less exposure.

SMILES strings stand for the structures. Where a name gives a salt, the structure may show the parent alone.

Data set [1] has as its system community-acquired pneumonia. In words: Randomized, double-blind clinical trials in community-acquired pneumonia. As to conditions: for cure rate / subjects cured: after 7 days; for cure rate: adult patients. Format: in vivo, human. How it is done:
Randomized, double-blind clinical trials were conducted at 17 sites in Taiwan and South Africa to assess the effectiveness of Compound 1 in treating adult patients with community-acquired pneumonia.
The trials included a total of 265 subjects having community-acquired pneumonia. The average age of the subjects was 43.5 years old and the average body weight was 66.17 kg. About 50% of the subjects were male, and about 62% of the subjects were Black or African American, about 21% White, and about 15% Asian.
Among the 265 subjects, 86 were treated with 3 Compound 1-containing capsules (750 mg of the free base compound, i.e., (3S,5S)-7-[3-amino-5-methyl-piperidinyl]-1-cyclopropyl-1,4-dihydro-8-methoxy-4-oxo-3-quinolinecarboxylic acid) per day, 89 with 2 Compound 1-containing capsules (500 mg of the free base compound) per day, and 90 with 2 levofloxacin capsules (500 mg of levofloxacin) per day for 7 consecutive days. In each group, the drug capsules were orally taken by the subjects in the morning with a full glass of water (240 mL). Within 2 hours after taking the drugs, the subjects were not allowed to eat, but water intake (no more than 240 mL) was permitted. Overall, 10.6% of randomized subjects withdrew from the treatments.

Data set [2] concerns multidrug-resistant methicillin-resistant Staphylococcus aureus. In words: Agar dilution MIC against multidrug-resistant MRSA (Taiwan isolates). Format: cell-based. As to the method: Compound 1 was tested for its inhibitory effect against multidrug-resistant methicillin-resistant Staphylococcus aureus obtained by 10 medical centers in all regions of Taiwan. MICs were determined using the agar dilution methods recommended by the Clinical and Laboratory Standards Institute (CLSI-M100-S18).
In general terms: In agar dilution the substance is mixed into plates at graded concentrations.

The test system of data set [3] is Methicillin-Resistant Staphylococcus aureus. In words: Broth microdilution against MRSA isolates (CAN-ICU Study). Format: cell-based. From the text:
MRSA isolates (n=193) were obtained as part of the Canadian National Intensive Care Unit (CAN-ICU) Study. 19 medical centers from all regions of Canada with active ICUs participated in the CAN-ICU study included. They were requested to only obtain “clinically significant” specimens from patients with a presumed infectious disease. Surveillance swabs, eye, ear, nose and throat swabs were excluded. Anaerobic organisms and fungal organisms were also excluded.
From September 2005-June 2006 (inclusive), each center collected a maximum of 300 consecutive pathogens isolated from blood, urine, tissue/wound, and respiratory specimens (one pathogen per cultured site per patient) of ICU patients. These isolates were shipped to the reference laboratory (Health Sciences Centre, Winnipeg, Canada) on Amies charcoal swabs, subcultured in appropriate media, and stocked in skim milk at −80° C.
The isolates' methicillin resistance was confirmed using the disk diffusion method described by the Clinical and Laboratory Standards Institute. […] Their PFGE fingerprints thus obtained were analyzed with BioNumerics v3.5 (Applied Maths St. Marten-Latem, Belgium) using a position tolerance of 1.0 and an optimization of 1.0. Strain relatedness was determined as previously described (Tenover et al., 1995). […]

The nature of data set [4]: Plasma protein binding by ultrafiltration. It counts as in vitro ADME. To be noted: human plasma. As to the method: Protein binding was also measured as follows: Ultrafiltrate (UF) samples were obtained by centrifuging the above-mentioned Compound 1-contaning heparinized human plasma in molecular weight cutoff ultrafiltration devices (30,000 Da) at ˜3000 rpm (30 min, ˜37° C.). The UF samples (0.025 mL) were mixed with an internal standard solution—0.050 mL of ˜800 ng/mL O^13CD3-Compound 1 (in which the OCH3 group was replaced with the O^13CD3 group), diluted by 20 folds, and analyzed by reverse-phase HPLC on a 3.5 micron C-18 column. Quantitation was obtained by the multiple reaction monitoring method through positive ion Turbo-Ion Spray ionization. Ultrafiltrate standards were used to quantify the unbound drug in plasma quality control samples and unknown specimens. Non-specific protein binding (NSB) was measured (NSB=0.0415) and used as a correction factor to determine the final % protein bindings. The nominal range of quantitation for the analyte was 50 to 10,000 ng/mL. 0.400 mL aliquot of human plasma was used in the assay. Sample concentrations were determined by back-calculation using a weighted linear (1/x^2) regression of a calibration curve generated from spiked UF standards. Over the linear range, the inter-batch % CV for Compound 1 was 4.9% to 11.8%.

Data set [5] is described as follows: Pharmacokinetic analysis of plasma (Cmax, AUC0-24h) at steady state. Format: in vivo, human. As to conditions: for Free AUC0-24: corrected for plasma protein binding; for Cmax / AUC(0-t): human, po, steady state, plasma; for Cmax: in vivo.
Data set [6] deals with Streptococcus pneumoniae. In words: Broth microdilution MIC against Streptococcus pneumoniae (Taiwan isolates). As to conditions: 0.008 to 8 μg/ml. Format: cell-based. How it is done: (§1) The Staphylococcus aureus and Streptococcus pneumoniae isolates were obtained by 10 medical centers in all regions of Taiwan. MICs were determined using the broth microdilution method.
In general terms: In broth dilution the organism is exposed to a series of concentrations in liquid medium.

Data set [7] has as its system Methicillin-Resistant Staphylococcus aureus. In words: Broth microdilution MIC against methicillin-resistant Staphylococcus aureus (Taiwan isolates). Format: cell-based. As to conditions: 0.008 to 8 μg/ml. As to the method: as §1
Where [8] appears, read: 500 mg per day orally, 89 treated (Compound 1), 90 treated (levofloxacin).

Regarding `COc1c(N2C[C@@H](C)C[C@H](N)C2)ccc2c(=O)c(C(=O)O)cn(C3CC3)c12` [Compound 1, malate salt hemihydrate of (3S,5S)-7-[3-amino-5-methyl-piperidinyl]-1-cyclopropyl-1,4-dihydro-8-methoxy-4-oxo-3-quinolinecarboxylic acid], the cure rate in data set [1] (500 mg per day orally) is 75.3%; in data set [1] (750 mg per day orally), 82.6%. For the same molecule, the subjects cured was 67 subjects in data set [1] (setting [8]) and 71 subjects in data set [1] (750 mg per day orally, 86 treated). Moreover, the “effectiveness in treating community-acquired pneumonia” value in data set [1] (oral capsules, 7 consecutive days) is “effective in treating community-acquired pneumonia”. Moreover, the “inhibitory effect against MRSA isolates that are Ciprofloxacin-resistant, Vancomycin-intermediate-resistant, and Daptomycin-nonsusceptible” value in data set [2] was “effective in inhibiting”. For the same molecule, in data set [3], the “activity against community-associated-MRSA versus healthcare-associated-MRSA strains” value is “more active against community-associated-MRSA strains than healthcare-associated-MRSA strains”. Further, in data set [3] (193 MRSA isolates), the “inhibitory activity against the MRSA isolates” value is given as “effectively inhibited MRSA”. The molecule further showed a fraction unbound at 30 min in data set [4] (500 mg per day, 500 mg q24 p.o.) of 0.84. The “Protein Binding” value in data set [4] (750 mg q24 p.o.) and in data set [4] (1000 mg q24 p.o.) was 16% throughout. For the same molecule, the “Free AUC0-24” value in data set [5] (500 mg q24 p.o.) is 32400 ng·h/mL; in data set [5] (750 mg q24 p.o.), 49100 ng·h/mL; in data set [5] (1000 mg q24 p.o.), 62900 ng·h/mL. The values for the Cmax in data set [5] (500 mg q24 p.o.), in data set [5] (750 mg q24 p.o.) and in data set [5] (1000 mg q24 p.o.) were 5560 ng/mL, 6820 ng/mL and 8200 ng/mL, respectively. The area under the curve AUC(0-t) in data set [5] (500 mg q24 p.o.) was 38600 ng·h/mL; in data set [5] (750 mg q24 p.o.), 58400 ng·h/mL; in data set [5] (1000 mg q24 p.o.), 74800 ng·h/mL.

With `COc1c(N2C[C@H](C)C[C@H](N)C2)ccc2c(=O)c(C(=O)O)cn(C3CC3)c12` [Compound 1′, malate salt hemihydrate of (3S,5R)-7-[3-amino-5-methyl-piperidinyl]-1-cyclopropyl-1,4-dihydro-8-methoxy-4-oxo-3-quinolinecarboxylic acid], in data set [6], the “inhibitory effect against Streptococcus pneumoniae” value was “effective in inhibiting”. Further, in data set [7], the “inhibitory effect against methicillin-resistant Staphylococcus aureus” value is “effective in inhibiting”.

With `C[C@H]1COc2c(N3CCN(C)CC3)c(F)cc3c(=O)c(C(=O)O)cn1c23` [levofloxacin, reference compound], the cure rate in data set [1] (500 mg per day orally) worked out at 80.0%. Further, the subjects cured in data set [1] (setting [8]) was determined as 72 subjects.
